ChEMBL document CHEMBL1129330, “Synthesis and pharmacological characterization of all sixteen stereoisomers of 2-(2'-carboxy-3'-phenylcyclopropyl)glycine. Focus on (2S,1'S,2'S,3'R)-2-(2'-carboxy-3'-phenylcyclopropyl)glycine, a novel and selective group II metabotropic glutamate receptors antagonist” (J Med Chem, 1996)

Key:
Glutamate NMDA receptor = assay: Binding affinity towards Ionotropic glutamate receptor NMDA; format: protein-complex assay
[1] = target: T1, Metabotropic glutamate receptor 2 (Homo sapiens, UniProt Q14416); assay: Effective concentration forskolin-stimulated cAMP formation in BHK cells expressing mGluR2 receptor; format: functional, cell-based
[2] = Inhibitory concentration towards the sodium dependent glutamate transport into synaptosomes.; format: functional, subcellular, Brain
[3] = Inhibitory concentration towards calcium/chloride-dependent glutamate transport into synaptosomes; format: functional, subcellular, Rattus norvegicus, Brain
[4] = target: Glutamate receptor ionotropic, kainate; assay: Binding affinity towards Ionotropic glutamate receptor kainate; format: protein-complex assay
[5] = target: T1, Metabotropic glutamate receptor 2; assay: Concentration required for the half-maximal inhibition of cAMP […] in BHK cells expressing mGluR2; format: functional, cell-based
[6] = target: Glutamate receptor ionotropic, AMPA (Rattus norvegicus, UniProt P19490+P19491+P19492+P19493); assay: Binding affinity towards Ionotropic glutamate receptor AMPA; format: protein-complex assay
[7] = target: T1, Metabotropic glutamate receptor 2; assay: Concentration required for the half-maximal inhibition of cAMP formation in BHK cells expressing mGluR2; format: functional, cell-based
[8] = target: T1, Metabotropic glutamate receptor 2; assay: Concentration required for the half-maximal inhibition of cAMP formation in BHK cells expressing mGluR2.; format: functional, cell-based
[9] = target: T1, Metabotropic glutamate receptor 2; assay: Effective concentration of compound against forskolin-stimulated cAMP formation in BHK cells expressing mGluR2 receptor; format: functional, cell-based
[10] = target: Metabotropic glutamate receptor 1 (Homo sapiens, UniProt Q13255); assay: Binding affinity towards mGluR1a was determined
[11] = target: T1, Metabotropic glutamate receptor 2; assay: Antagonistic activity against mGluR2 was determined; format: functional

T1 sequence (Q14416 whole entry): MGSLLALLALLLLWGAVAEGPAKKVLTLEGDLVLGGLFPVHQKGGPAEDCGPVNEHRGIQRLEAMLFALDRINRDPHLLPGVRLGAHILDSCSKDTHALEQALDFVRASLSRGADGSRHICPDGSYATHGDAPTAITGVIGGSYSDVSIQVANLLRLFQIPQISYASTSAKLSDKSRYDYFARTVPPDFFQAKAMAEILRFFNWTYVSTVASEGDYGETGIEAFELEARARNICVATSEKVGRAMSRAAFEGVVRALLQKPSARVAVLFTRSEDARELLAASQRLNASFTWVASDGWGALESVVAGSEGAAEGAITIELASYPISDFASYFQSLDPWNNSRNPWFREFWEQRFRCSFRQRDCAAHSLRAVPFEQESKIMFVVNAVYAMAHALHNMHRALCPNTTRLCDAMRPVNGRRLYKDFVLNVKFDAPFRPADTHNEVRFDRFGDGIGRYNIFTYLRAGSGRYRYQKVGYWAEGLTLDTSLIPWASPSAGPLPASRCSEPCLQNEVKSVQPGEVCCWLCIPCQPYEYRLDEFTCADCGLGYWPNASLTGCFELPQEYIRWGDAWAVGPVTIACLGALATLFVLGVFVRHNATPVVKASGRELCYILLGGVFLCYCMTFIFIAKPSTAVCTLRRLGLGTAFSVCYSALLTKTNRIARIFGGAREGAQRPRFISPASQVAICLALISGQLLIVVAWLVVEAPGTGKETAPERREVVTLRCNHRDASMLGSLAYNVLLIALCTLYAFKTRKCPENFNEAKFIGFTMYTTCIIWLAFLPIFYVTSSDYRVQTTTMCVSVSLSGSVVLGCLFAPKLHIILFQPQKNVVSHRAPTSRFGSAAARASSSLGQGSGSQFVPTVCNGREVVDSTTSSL
Chain of Metabotropic glutamate receptor 1 (Q13255 whole entry): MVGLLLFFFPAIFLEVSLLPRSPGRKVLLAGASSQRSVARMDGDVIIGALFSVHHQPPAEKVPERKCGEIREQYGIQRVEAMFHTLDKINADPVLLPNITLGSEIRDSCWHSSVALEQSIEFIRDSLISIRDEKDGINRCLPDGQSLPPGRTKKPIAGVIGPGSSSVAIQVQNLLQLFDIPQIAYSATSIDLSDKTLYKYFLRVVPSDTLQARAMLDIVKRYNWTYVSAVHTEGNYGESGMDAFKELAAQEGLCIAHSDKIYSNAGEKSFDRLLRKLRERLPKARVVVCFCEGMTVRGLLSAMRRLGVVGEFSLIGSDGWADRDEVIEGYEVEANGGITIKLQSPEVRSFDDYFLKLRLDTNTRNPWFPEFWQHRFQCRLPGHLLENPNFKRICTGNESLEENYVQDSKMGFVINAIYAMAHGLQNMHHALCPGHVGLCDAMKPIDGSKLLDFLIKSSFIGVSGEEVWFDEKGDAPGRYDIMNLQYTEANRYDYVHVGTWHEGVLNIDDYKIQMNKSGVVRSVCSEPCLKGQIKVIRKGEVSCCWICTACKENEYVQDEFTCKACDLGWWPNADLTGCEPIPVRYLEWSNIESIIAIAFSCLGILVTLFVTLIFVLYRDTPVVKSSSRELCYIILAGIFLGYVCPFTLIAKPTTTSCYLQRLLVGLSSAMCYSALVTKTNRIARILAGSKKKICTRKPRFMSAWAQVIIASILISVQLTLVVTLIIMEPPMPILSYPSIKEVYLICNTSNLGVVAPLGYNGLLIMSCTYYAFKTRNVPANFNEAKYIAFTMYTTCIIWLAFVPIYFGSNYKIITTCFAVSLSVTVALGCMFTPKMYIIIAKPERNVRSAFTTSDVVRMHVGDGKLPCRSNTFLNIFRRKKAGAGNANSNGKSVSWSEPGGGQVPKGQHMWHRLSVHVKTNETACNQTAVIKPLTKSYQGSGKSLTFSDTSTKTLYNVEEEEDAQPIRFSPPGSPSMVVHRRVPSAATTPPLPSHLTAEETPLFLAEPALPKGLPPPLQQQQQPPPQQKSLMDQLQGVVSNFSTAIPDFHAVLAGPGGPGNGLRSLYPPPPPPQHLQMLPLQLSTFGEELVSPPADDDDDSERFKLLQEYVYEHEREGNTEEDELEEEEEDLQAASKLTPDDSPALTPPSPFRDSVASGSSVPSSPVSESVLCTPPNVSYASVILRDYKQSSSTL

Ki (Glutamate NMDA receptor) [µM]	EC50 [1] [µM]	IC50 [2] [µM]	IC50 [3] [µM]	Ki [4] [µM]	IC50 [5] [µM]	Ki [6] [µM]	IC50 [7] [µM]	IC50 [8] [µM]	EC50 [9] [µM]	Ki [10] [µM]	IC50 [11] [µM]	EC50 ([1]; bhk) [µM]	IC50 ([5]; bhk) [µM]	Structure (SMILES)
> 200	> 300	> 300	270	155	> 300	> 220								N[C@H](C(=O)O)[C@@H]1[C@H](C(=O)O)[C@@H]1c1ccccc1
192	> 300	> 300	7	126	> 300	> 220								N[C@H](C(=O)O)[C@@H]1[C@@H](C(=O)O)[C@H]1c1ccccc1
> 200	> 300	> 300	213	144	> 300	141								N[C@H](C(=O)O)[C@H]1[C@@H](C(=O)O)[C@@H]1c1ccccc1
> 200	> 300	> 300	233	> 190	> 300	> 220								N[C@H](C(=O)O)[C@H]1[C@@H](C(=O)O)[C@H]1c1ccccc1
25	> 300	> 300	85	> 190	> 300	> 220								N[C@H](C(=O)O)[C@H]1[C@H](C(=O)O)[C@@H]1c1ccccc1
107	> 300	> 300	41	25		124	> 300							N[C@H](C(=O)O)[C@H]1[C@H](C(=O)O)[C@H]1c1ccccc1
193		> 300	> 300	> 190		212		> 300	> 300					N[C@@H](C(=O)O)[C@@H]1[C@@H](C(=O)O)[C@@H]1c1ccccc1
> 200	> 300	> 300	143	122	> 300	251								N[C@@H](C(=O)O)[C@@H]1[C@H](C(=O)O)[C@@H]1c1ccccc1
29	> 300	> 300	138	> 190	> 300	> 220								N[C@@H](C(=O)O)[C@@H]1[C@@H](C(=O)O)[C@H]1c1ccccc1
123	> 300	> 300	64	155	> 300	160								N[C@@H](C(=O)O)[C@H]1[C@@H](C(=O)O)[C@@H]1c1ccccc1
> 200	> 300	> 300	32	117	> 300	> 220								N[C@@H](C(=O)O)[C@H]1[C@@H](C(=O)O)[C@H]1c1ccccc1
> 200	> 300	> 300	23	> 190	> 300	> 300								N[C@@H](C(=O)O)[C@H]1[C@H](C(=O)O)[C@@H]1c1ccccc1
129	122	> 300	> 300	15		125								N[C@@H](C(=O)O)[C@H]1[C@H](C(=O)O)[C@H]1c1ccccc1
										50	50			CC(N)(C(=O)O)c1ccc(C(=O)O)cc1 (stereo not given)
> 200		> 300	> 300	> 190	8	> 220								N[C@H](C(=O)O)[C@@H]1[C@@H](C(=O)O)[C@@H]1c1ccccc1
> 200	> 300	> 300	> 300	> 190	> 300	> 220								N[C@@H](C(=O)O)[C@@H]1[C@H](C(=O)O)[C@H]1c1ccccc1 (stereo in doubt; 44)
			185	221		285						> 300	> 300	N[C@@H](C(=O)O)[C@@H]1[C@H](C(=O)O)[C@H]1c1ccccc1 (stereo in doubt; 47)
